Assay results: US9949489B2, “Methods for control of hemipteran insect stylet sheath structure formation” (The United States of America, as Represented by the …, priority 2015, dated 2018)

Columns and labels:
D. citri [1] = experiment: Liquid ACP diet sandwich feeding assay (MFC): inhibition of de novo stylet sheath formation; assay type: in vivo, Diaphorina citri; conditions: for Effect (on ACP stylet sheath formation): D. citri, GRAS small molecule in 175 μL liquid ACP diet at the mM concentration of Table 8, about 24 h; for Effect on D. citri stylet sheath formation in liquid ACP diet: about 24 h, cellulase approx 1 unit/μl, BAPN 100 mM, EDTA approx 2 mM, proteases per Table 5
Procedure: (§1) The next step was to determine if addition of cellulase to the diet of D. citri would interfere with stylet sheath formation. A D. citri diet is prepared as described by Hall, David et al., “Research toward an artificial diet for adult Asian citrus psyllid,” Annals of the Entomological Society of America 103.4:611-617 (2010). Approximately 25 D. citri were collected into polystyrene Cellstar 35 mm×10 mm dishes (Griener Bio-One, Monroe, N.C.) that were then sealed using a single layer of Parafilm® M (Pechiney Plastic Packaging Company, Chicago, Ill.). Approximately 99 μl of liquid ACP diet (e.g., diet lacking the solidifying agar component, see Hall, et. al., 2010, supra) was mixed with approximately 1 μl of cellulase (Sigma Aldrich, St. Louis, Mo.) and mixed. […] layer Parafilm® M surface, which was then covered with another layer of Parafilm® M to form a sandwich (e.g., Parafilm® M—liquid ACP diet with cellulase—Parafilm® M) to allow ACP to feed into the liquid ACP diet containing cellulase. This MFC was then incubated at about 25° C., at about 75% relative humidity, with a light:dark cycle of approximately 14:10 hours for a period of about 24 hours. After about 24 hours, the stylet sheaths were observed using an inverted microscope. FIGS. 3G through 3I are images of three separate locations where D. citri made attempts to feed into the liquid ACP diet containing approximately 1 unit/μl cellulase.
(§2) Because many biomolecule polymerizing enzymes require divalent cations as cofactors, the effect of ethylenediaminetetraacetic acid (EDTA), a chelator of divalent cations, on ACP SS formation was tested by adding EDTA to the previously described liquid ACP diet (see Hall et al., 2010, supra). The EDTA was added to the liquid ACP diet at a concentration of approximately 2 mM EDTA in diH2O. Approximately 200 D. citri were placed in plastic Petri dishes. The dishes were covered with a single layer of Parafilm® M to form MFC. […] The MFC plates were incubated at a temperature of about 25° C., a relative humidity of about 75%, and a light/dark cycle of about 14:10 hours duration. Following the 24-hour incubation, the fluid (either liquid ACP diet containing EDTA or just the liquid ACP diet) between the two sheets of plastic was harvested by using a sterile 5 ml syringe and 20-gauge needle which was pushed into the center of the Parafilm® M-fluid-Parafilm® M sandwich, and the fluid was then removed by syringe plunger suction. The harvested fluids were put into sterile 50 ml conical vials, placed at about −80° C. until frozen. Each vial of harvested fluid was then lypholyzed overnight. The lyophilized product was then solubilized in […], placed at about −80° C. until frozen, then each new vial was lyopholyzed overnight. The lyophilized product was then solubilized in approximately 15 μL of approximately 1× Laemmili buffer (Bio-Rad, Hercules, Calif.) containing approximately 5% 2-mercaptoethanol. The sample was loaded onto a sodium dodecyl sulfate polyacrylamide gel (SDS-PAGE) and underwent electrophoresis. The SDS PAGE gel was then stained with coomassie. Uncommon bands between the liquid ACP diet containing EDTA and liquid ACP diet without EDTA (negative control) lanes were cut out and analyzed by Orbitrap (Thermo Scientific, Waltham, Mass.) protein analysis, according to manufacturer's protocol.
(§3) After about 24-hour incubation, D. citri feeding sites were observed. […] See also Table 2 and Table 3, infra.

D. citri [2] = experiment: as above; assay type: in vivo, Diaphorina citri; parameters: key: −: No effect apparent inhibition of stylet sheath; +/−: inconclusive inhibition; +: apparent slight inhibition effect; ++: increased apparent inhibition effect; +++: high inhibition effect; ++++: very high inhibition effect; +++++: complete inhibition of sheath synthesis; conditions: small molecule in liquid ACP diet, about 24 h, concentration, pH, 25° C. per Table 3
Procedure: as §1, §2, §3

[3] = system: Bemisia tabaci biotype B whitefly; experiment: Liquid ACP diet sandwich feeding assay: stylet sheath formation by whitefly; assay type: in vivo; parameters: key to Inhibition of Sheath Formation: −: No effect apparent inhibition of stylet sheath; +/−: inconclusive inhibition; +: apparent slight inhibition effect; ++: increased apparent inhibition effect; +++: high inhibition effect; ++++: very high inhibition effect; +++++: complete inhibition of sheath synthesis
Procedure: The effects of a protease (bromelain and ficin) contained within the previously described artificial diet (liquid ACP diet) were tested on the Bemisia tabaci biotype B whitefly (a Aleyrodidae, an SSFHI) using approximately 100 live B. tabaci. Approximately 100 live B. tabaci were placed into polystyrene Cellstar 35 mm×10 mm dishes (Griener Bio-One, Monroe, N.C.) using the liquid ACP diet “sandwich” described in Example 2, using approximately 200 μL liquid ACP diet with or without a protease using the conditions described in Table 6 below. The MFCs were incubated at a temperature of about 25° C., a relative humidity of about 75%, and a light:dark cycle of approximately 14:10 hours. MFCs were maintained within clear Pyrex® baking dishes with the membrane (liquid ACP diet “sandwich”) side up, and the baking dish covered in a single layer of clear plastic wrap to prevent external contaminant interactions with the membrane surface during incubation. After about 24 hours incubation, the B. tabaci feeding sites were observed using an inverted microscope to see the effects of proteases in diet on the stylet sheaths for B. tabaci.
After performing the experiments using liquid ACP diet containing either bromelain or ficin experiment on B. tabaci, a similar experiment is performed substituting BAPN for the enzyme. […]

## C[C@@H]1O[C@@H](OC[C@H]2O[C@@H](Oc3cc(O)c4c(c3)O[C@H](c3ccc(O)c(O)c3)CC4=O)[C@H](O)[C@@H](O)[C@@H]2O)[C@H](O)[C@H](O)[C@H]1O [Eriocitrin]
D. citri [1]
  Effect (on ACP stylet sheath formation): Malformed sheaths
D. citri [1]; listed as eriocitrin
  Effect (on ACP stylet sheath formation): malformation of sheaths

## COc1ccc([C@@H]2CC(=O)c3c(O)cc(O[C@@H]4O[C@H](CO[C@@H]5O[C@@H](C)[C@H](O)[C@@H](O)[C@H]5O)[C@@H](O)[C@H](O)[C@H]4O)cc3O2)cc1 [Didymin]
D. citri [1]
  Effect (on ACP stylet sheath formation): Malformed sheaths

## COc1ccc([C@@H]2CC(=O)c3c(O)cc(O)cc3O2)cc1O [Hesperetin]
D. citri [1]
  Effect (on ACP stylet sheath formation): Malformed sheaths

## CC1(C)O[C@H]2CC(=O)OC[C@]23[C@H]2CC[C@@](C)([C@@H](O[C@@H]4O[C@H](CO)[C@@H](O)[C@H](O)[C@H]4O)c4ccoc4)[C@@]4(O[C@@H]4C(=O)O)[C@]2(C)C(=O)C[C@@H]13 [Limonin glucoside]
D. citri [1]
  Effect (on ACP stylet sheath formation): Malformed sheaths

## O=C(O)CN(CCN(CC(=O)O)CC(=O)O)CC(=O)O [Ethylenediaminetetraacetic acid (EDTA), Ethylenediaminetetraacetic acid]
D. citri [1]
  Effect on D. citri stylet sheath formation in liquid ACP diet: can inhibit sheath formation
D. citri [2]
  Inhibition of Sheath Formation: ‘+++++’ (D. citri)

## CC(=O)O[C@H]1CC(=O)OC(C)(C)[C@@H]2CC(=O)[C@]3(C)[C@H](CC[C@@]4(C)[C@H](c5ccoc5)OC(=O)[C@H]5O[C@]543)[C@@]12C [Nomilin]
D. citri [1]; listed as nomilin
  Effect (on ACP stylet sheath formation): inhibition of flange solidification

## CC1(C)O[C@H]2CC(=O)OC[C@]23[C@H]2CC[C@@]4(C)[C@H](c5ccoc5)OC(=O)[C@H]5O[C@]54[C@]2(C)C(=O)C[C@@H]13 [Limonin]
D. citri [1]
  Effect (on ACP stylet sheath formation): Malformed sheaths

## N#CCCN.O=C(O)/C=C/C(=O)O [3-aminopropionitrile fumarate salt]
D. citri [1]
  Effect on D. citri stylet sheath formation in liquid ACP diet: prohibited the solidification of the ACP SS
D. citri [2]
  Inhibition of Sheath Formation: ‘+++++’ (D. citri)
[3]; WF (Bemisia tabaci, B biotype), BAPN 50 mM in diet
  Inhibition of Sheath Formation: ‘+++++’ (WF)
[3]; about 24 hours, bromelain or ficin 10 units in 250 μl of diet, BAPN 50 mM
  Effect on B. tabaci stylet sheath formation in liquid ACP diet: prevents stylet sheath formation

## COc1ccc([C@@H]2CC(=O)c3c(O)cc(O[C@@H]4O[C@H](CO[C@@H]5O[C@@H](C)[C@H](O)[C@@H](O)[C@H]5O)[C@@H](O)[C@H](O)[C@H]4O)cc3O2)cc1O [Hesperidin]
D. citri [1]
  Effect (on ACP stylet sheath formation): No Effect

## O=C1C[C@@H](c2ccc(O)cc2)Oc2cc(O)cc(O)c21 [Naringenin]
D. citri [1]
  Effect (on ACP stylet sheath formation): Malformed sheaths

## C[C@@H]1O[C@@H](O[C@H]2[C@H](Oc3cc(O)c4c(c3)O[C@H](c3ccc(O)cc3)CC4=O)O[C@H](CO)[C@@H](O)[C@@H]2O)[C@H](O)[C@H](O)[C@H]1O [Naringin]
D. citri [1]
  Effect (on ACP stylet sheath formation): Malformed sheaths

## O[C@H](CS)[C@H](O)CS (racemic) [Dithiothreitol Solution (DTT), Dithiothreitol]
D. citri [2]
  Inhibition of Sheath Formation: ‘+++++’ (D. citri)

## O=c1cc(CO)occ1O [Kojic Acid]
D. citri [2]
  Inhibition of Sheath Formation: ‘++’ (D. citri)

## O=C1C[C@@H](c2ccc(O)c(O)c2)Oc2cc(O)cc(O)c21 [Eriodictyol]
D. citri [1]
  Effect (on ACP stylet sheath formation): Malformed sheaths

## O=c1ccc2ccc(O)cc2o1 [7-HO-Coumarin, 7-hydroxy-coumarin]
D. citri [1]
  Effect (on ACP stylet sheath formation): Malformed sheaths

## O=C([O-])CN(CC(=O)[O-])CC(=O)[O-].[Na+].[Na+].[Na+] [Nitrilotriacetic acid trisodium salt]
D. citri [2]
  Inhibition of Sheath Formation: ‘+++++’ (D. citri)

## [NH4+].[NH4+].[SH-].[SH-].[S]=[Mo]=[S] [Ammonium Tetrathiomolybdate]
D. citri [1]
  Effect on D. citri stylet sheath formation in liquid ACP diet: potent inhibitor of D. citri sheath formation
D. citri [2]
  Inhibition of Sheath Formation: ‘+++++’ (D. citri)

## OCc1ccc(O)cc1 [4-hydroxybenzyl alcohol]
D. citri [2]
  Inhibition of Sheath Formation: ‘−’ (D. citri)
